Experimental findings from patent US4594319A, “Protein kinase enzyme AUT-PK 500 and a radioimmunoassay for detection of neoplasia” (The University of Tennessee Research Corp., priority 1984, dated 1986) are described below.

In test [1] the test system is AUT-PK 500. In words: Protein kinase assay: autophosphorylation of AUT-PK 500 (32P incorporation from [gamma-32P] ATP). The class given is biochemical, rat. The following applies: for concentration giving peak activity of the enzyme / maximal activation, relative to that obtained by Mn^2+ or Mg^2+ / EC50: divalent cations; for EC50: read-out: concentration resulting in half-maximal stimulation of AUT-PK 500; for ^32 P Incorporated (autophosphorylation of AUT-PK 500): 1 microgram enzyme; for influence of sulfhydryl group inhibitors on AUT-PK 500 activity: see Table IV; for effect on the AUT-PK 500 activity: monovalent cations, concentrations of up to 100 mM; for effect on the autophosphorylation of AUT-PK 500: filter assay or radioautography of SDS gel. The procedure: ATP into an appropriate substrate. […] ATP (400-600 cpm/pmol) and an appropriate amount of the enzyme. The reaction was incubated at 37° C. for one minute or as specified under experimental conditions, and was terminated by the addition of 2 ml of ice-cold 10% trichloroacetic acid followed by the addition of 500 micrograms of bovine serum albumin. The precipitate was immediately filtered on a GF/C filter and washed three times with 2 ml of ice-cold 10% trichloroacetic acid. The filter was dried and counted in a cocktail of Omnifluor in toluene. […]
Autophosphorylation of AUT-PK 500 was also analyzed by one-dimensional SDS-polyacrylamide gel electrophoresis. […] ATP. […] The phosphorylated sample was applied to 6% acrylamide containing 0.1% SDS and 0.3% Bis. Electrophoresis was conducted in the presence of Tris-glycine buffer, pH 8.3.

The subject of test [2] is AUT-PK 500. In words: Phosphorylation of exogenous substrates by AUT-PK 500. The format is biochemical, rat. The method, then:
Protein kinase activity was measured by the incorporation of ^32 P from [gamma-^32 P] ATP into an appropriate substrate. The 250-microliter reaction mixture contained 20 mM Tris-HCl, pH 7.5, 10 mM Mg^2+, 2.5×10^-6 M [gamma-^32 P] ATP (400-600 cpm/pmol) and an appropriate amount of the enzyme. The reaction was incubated at 37° C. for one minute or as specified under experimental conditions, and was terminated by the addition of 2 ml of ice-cold 10% trichloroacetic acid followed by the addition of 500 micrograms of bovine serum albumin. The precipitate was immediately filtered on a GF/C filter and washed three times with 2 ml of ice-cold 10% trichloroacetic acid. The filter was dried and counted in a cocktail of Omnifluor in toluene.
Most of the known cyclic nucleotide-dependent or -independent protein kinases catalyze the phosphorylation of one or more of the commonly used exogenous substrates such as histone, casein, protamine, and phosvitin. […] In order to confirm this conclusion, AUT-PK 500 was incubated with [gamma-^32 P] ATP and histone in the presence or absence of cyclic AMP, then subjected to SDS-polyacrylamide gel electrophoresis and analyzed by radioautography.

Setting [3] is: Table IV, -SH group inhibitor 5 mM, enzyme alone 18,500 cpm.
The mark [4] stands for this setting: Table II, addition 10 micrograms, enzyme alone 16,000 cpm.
Setting [5] is: concentrations of up to 200 micrograms/ml.

Take `[Sr+2]` [Sr^2+]: in the test on AUT-PK 500 [1], the “concentration giving peak activity of the enzyme” value is recorded as 50 mM; the “maximal activation, relative to that obtained by Mn^2+ or Mg^2+” value is listed as “of the same order”; the EC50 worked out at 2.5 mM. Turning to `O=S(=O)(O)c1cc[c]([Hg][Cl])cc1` [p-chloromercuriphenylsulfonic acid], the “^32 P Incorporated (autophosphorylation of AUT-PK 500)” value (from here on “^32 P Incorporated”) with AUT-PK 500 [1] (setting [3]) is recorded as 18,300 cpm. The “influence of sulfhydryl group inhibitors on AUT-PK 500 activity” value in the test with AUT-PK 500 [1] is on record as “did not influence”.

On to `O=C(O)CN(CCOCCOCCN(CC(=O)O)CC(=O)O)CC(=O)O` [EGTA, 1,2-di(2-aminoethoxy)ethane-N,N,N',N'-tetraacetic acid], for which, in the test on AUT-PK 500 [1] (EGTA (Table III, 0.8 mM), explained by partial chelation of Mg^2+), the “inhibition of AUT-PK 500 activity” value is 23.2%. Besides, in the test on AUT-PK 500 [1] (Table III, 0.8 mM, enzyme alone 18,500 cpm), the “^32 P Incorporated” value is 14,200 cpm. Take lithium: the “effect on the AUT-PK 500 activity” value with AUT-PK 500 [1] is given as “no significant effect”.

For Calmodulin, in the test with AUT-PK 500 [1] (Table III, 100 microgram/ml, enzyme alone 18,500 cpm), the “^32 P Incorporated” value is given as 17,400 cpm. Regarding `CCN1C(=O)C=CC1=O` [N--Ethylmaleimide, N-ethylmaleimide], the “^32 P Incorporated” value in the test with AUT-PK 500 [1] (setting [3]) is given as 18,000 cpm. Moreover, the “influence of sulfhydryl group inhibitors on AUT-PK 500 activity” value in the test on AUT-PK 500 [1] is “did not influence”. For `Nc1nc2c(ncn2[C@@H]2O[C@@H]3COP(=O)(O)O[C@H]3[C@H]2O)c(=O)[nH]1` [Cyclic GMP], the “dependence of AUT-PK 500 activity on cyclic nucleotides / blockage by heat-stable inhibitor” value with AUT-PK 500 [1] is on record as “independent”. Besides, in the test with AUT-PK 500 [1] (Table II, cyclic nucleotide 1 microM, enzyme alone 16,000 cpm), the “^32 P Incorporated” value is given as 16,300 cpm. For Protamine, the “effect of exogenous substrate proteins on the phosphorylation of AUT-PK 500” value in the test on AUT-PK 500 [1] (Table II) is “None of these proteins affected the phosphorylation”. Besides, the “^32 P Incorporated” value in the test on AUT-PK 500 [1] (setting [4]) was 12,000 cpm. With `[Ca+2]` [Ca^2+], in the test with AUT-PK 500 [1] (Table III, 0.4 mM, enzyme alone 18,500 cpm), the “^32 P Incorporated” value is reported as 17,000 cpm. In addition, the “effect on AUT-PK 500 activity” value in the test with AUT-PK 500 [1] (calcium or calcium-calmodulin, Table III) was “not affected”. Also, in the test with AUT-PK 500 [1], the “concentration giving peak activity of the enzyme” value is 20 mM and the “maximal activation, relative to that obtained by Mn^2+ or Mg^2+” value came to 60%. On to polyarginine, for which the “effect on the autophosphorylation of AUT-PK 500” value in the test with AUT-PK 500 [1] (setting [5]) is “No effect”.

For `NCCCNCCCCNCCCN` [spermine], in the test with AUT-PK 500 [1] (polyamines each at 1 mM), the “effect on the autophosphorylation of AUT-PK 500” value is “No effect”.

For `[Mg+2]` [Mg^2+], in the test on AUT-PK 500 [1], the “concentration giving peak activity of the enzyme” value is reported as 10 mM and the EC50 amounted to 2.5 mM.

Turning to `[Co+2]` [Co^2+], in the test on AUT-PK 500 [1], the “concentration giving peak activity of the enzyme” value worked out at 5 mM; the “maximal activation, relative to that obtained by Mn^2+ or Mg^2+” value is on record as 40%; the EC50 was determined as 2.5 mM. On to Casein, for which the “phosphorylation of the substrate by AUT-PK 500” value in the test on AUT-PK 500 [2] was “did not phosphorylate”. In the test with AUT-PK 500 [1] (Table II), the “effect of exogenous substrate proteins on the phosphorylation of AUT-PK 500” value is “None of these proteins affected the phosphorylation”. In the test on AUT-PK 500 [1] (setting [4]), the “^32 P Incorporated” value is listed as 10,000 cpm. With `NC(=O)CI` [Iodoacetamide], the “^32 P Incorporated” value in the test with AUT-PK 500 [1] (setting [3]) was 18,600 cpm. As to `[Na+]` [sodium], the “effect on the AUT-PK 500 activity” value in the test on AUT-PK 500 [1] is listed as “no significant effect”. polylysine: the “effect on the autophosphorylation of AUT-PK 500” value with AUT-PK 500 [1] (setting [5]) is given as “No effect”. Turning to `[Mn+2]` [Mn^2+], in the test on AUT-PK 500 [1], the “concentration giving peak activity of the enzyme” value was found to be 5 mM and the EC50 stood at 2.5 mM. Regarding `NCCCCNCCCN` [spermidine], the “effect on the autophosphorylation of AUT-PK 500” value with AUT-PK 500 [1] (polyamines each at 1 mM) is given as “No effect”.

As to `NCCCCN` [putrescine], the “effect on the autophosphorylation of AUT-PK 500” value in the test with AUT-PK 500 [1] (polyamines each at 1 mM) is listed as “No effect”. Regarding `Nc1nc2c(ncn2[C@@H]2O[C@H](COP(=O)(O)OP(=O)(O)OP(=O)(O)O)[C@@H](O)[C@H]2O)c(=O)[nH]1` [GTP], the “effect on the ATP-dependent rate of self-phosphorylation” value in the test with AUT-PK 500 [1] was “did not affect”. The “incorporation of radioactivity with [gamma-^32 P] GTP as phosphate donor” value in the test with AUT-PK 500 [1] (GTP in place of ATP) was “no incorporation of radioactivity was observed”. In the case of `[K+]` [potassium], the “effect on the AUT-PK 500 activity” value with AUT-PK 500 [1] is recorded as “no significant effect”.
